The target of assay [1] is T1, Bcl-2-related protein A1 (Homo sapiens, UniProt Q16548).
T1 sequence (Q16548 whole entry): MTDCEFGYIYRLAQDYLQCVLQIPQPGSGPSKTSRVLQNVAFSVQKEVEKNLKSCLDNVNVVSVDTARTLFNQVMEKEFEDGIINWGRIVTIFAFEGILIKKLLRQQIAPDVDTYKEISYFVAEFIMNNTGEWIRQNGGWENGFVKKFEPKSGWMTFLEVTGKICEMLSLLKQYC
Description: Inhibition of recombinant Bfl-1 (1-152) (unknown origin) by TR-FRET assay

For assay [2], the target named is T1, Bcl-2-related protein A1. The assay can be described thus: Inhibition of Bfl-1 (unknown origin) assessed as inhibition constant.
Assay [3] concerns the target T2, Induced myeloid leukemia cell differentiation protein Mcl-1 (Homo sapiens, UniProt Q07820).
Description: Inhibition of Mcl-1 (unknown origin) assessed as inhibition constant
Another assay addresses Bcl-2-like protein 1 (Homo sapiens, UniProt Q07817). Put plainly: Inhibition of GST fused Bcl-xL (unknown origin) incubated for 5 min by TR-FRET assay. For orientation: In TR-FRET formats the signal depends on donor and acceptor labels being close together.
Assay [4] addresses T2, Induced myeloid leukemia cell differentiation protein Mcl-1. The assay can be described thus: Inhibition of GST fused Mcl-1 (unknown origin) incubated for 5 min by TR-FRET assay.
Assay [5] concerns the target Apoptosis regulator Bcl-2 (Homo sapiens, UniProt P10415). The assay can be described thus: Inhibition of GST fused Bcl-2 (unknown origin) incubated for 5 min by TR-FRET assay.
Another assay has as its target T3, Bcl-2-like protein 2 (Homo sapiens, UniProt Q92843).
T3 sequence (Q92843 whole entry): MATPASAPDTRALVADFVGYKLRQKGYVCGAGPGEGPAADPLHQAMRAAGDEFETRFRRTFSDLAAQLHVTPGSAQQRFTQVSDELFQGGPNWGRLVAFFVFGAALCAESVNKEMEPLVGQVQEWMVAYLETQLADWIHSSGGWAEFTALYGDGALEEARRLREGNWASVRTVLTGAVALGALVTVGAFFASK
Put plainly: Inhibition of GST fused Bcl-w (unknown origin) incubated for 5 min by TR-FRET assay.

Assay [6] concerns the target T1, Bcl-2-related protein A1. The assay can be described thus: Inhibition of Bfl-1 (unknown origin) incubated for 30 min by fluorescence polarization assay.
Assay [7] addresses T1, Bcl-2-related protein A1. The assay can be described thus: Inhibition of GST-tagged Bfl-1 (unknown origin) incubated for 60 min by TR-FRET assay.

The term IC50 denotes the concentration needed to halve the response being measured. In general, Ki refers to the dissociation constant of the complex between target and ligand, obtained from inhibition or displacement.

T2 sequence (Q07820 whole entry, the tested form may be a part): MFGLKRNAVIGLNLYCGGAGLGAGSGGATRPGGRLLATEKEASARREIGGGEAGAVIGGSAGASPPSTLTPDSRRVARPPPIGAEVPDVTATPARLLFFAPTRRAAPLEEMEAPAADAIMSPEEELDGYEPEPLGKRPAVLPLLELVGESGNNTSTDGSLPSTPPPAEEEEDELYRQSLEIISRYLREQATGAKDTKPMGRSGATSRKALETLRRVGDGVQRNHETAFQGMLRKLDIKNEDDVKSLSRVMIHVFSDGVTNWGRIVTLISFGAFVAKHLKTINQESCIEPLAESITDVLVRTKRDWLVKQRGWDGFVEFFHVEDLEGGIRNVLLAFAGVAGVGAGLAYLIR
Apoptosis regulator Bcl-2, sequence (P10415 whole entry, the tested form may be a part): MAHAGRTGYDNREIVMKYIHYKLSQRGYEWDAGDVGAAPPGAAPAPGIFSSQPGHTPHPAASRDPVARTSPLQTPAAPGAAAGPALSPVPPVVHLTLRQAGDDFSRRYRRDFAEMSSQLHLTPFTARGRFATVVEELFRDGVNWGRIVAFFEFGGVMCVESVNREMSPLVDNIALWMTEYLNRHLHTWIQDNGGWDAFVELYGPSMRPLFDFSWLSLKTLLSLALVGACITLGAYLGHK
Bcl-2-like protein 1, sequence (Q07817 whole entry, the tested form may be a part): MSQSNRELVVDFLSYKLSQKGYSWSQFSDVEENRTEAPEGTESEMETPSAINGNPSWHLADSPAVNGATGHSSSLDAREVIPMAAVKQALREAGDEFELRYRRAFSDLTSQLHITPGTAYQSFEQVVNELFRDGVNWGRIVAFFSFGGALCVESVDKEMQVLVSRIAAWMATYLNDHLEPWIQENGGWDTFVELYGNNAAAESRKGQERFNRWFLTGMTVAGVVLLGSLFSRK

`O=C(O)CSc1cc(NS(=O)(=O)c2ccc(Br)cc2)c2ccccc2c1O`: on Bcl-2-related protein A1 [1], the concentration for half-maximal inhibition (IC50) was 8.41 µM. Also, the inhibition constant (Ki) at Bcl-2-related protein A1 [2] turned out to be 3.17 µM; in assay [3], 1.91 µM.
Consider `CCOC(=O)CS(=O)(=O)c1nc(-c2ccc(F)cc2)cc(C(F)(F)F)n1`, for which the 50% inhibitory concentration (IC50) (on Bcl-2-like protein 1; in assay [4]; in assay [5]; at Bcl-2-like protein 2) was more than 100 µM each time.
Consider `O=C(O)CSc1cc(NS(=O)(=O)c2cccs2)c2ccccc2c1O`, for which, on Bcl-2-related protein A1 [1], inhibition was half-maximal at 4.61 µM (IC50).
For the compound `O=C(O)CSc1cc(NS(=O)(=O)c2ccc(-c3ccccc3)cc2)c2ccccc2c1O`, the values for the Ki (at Bcl-2-related protein A1 [2]; in [3]) were 2.21 µM and 4.71 µM, respectively.
For the compound `COc1ccc(C(c2c(-c3ccccc3)n(O)c3ccccc23)N2CCN(C)CC2)cc1` (stereo unspecified), the results for the IC50 against Bcl-2-related protein A1 [6] and on Bcl-2-related protein A1 [7] were 0.8 µM and 1.4 µM, respectively.
For `COc1ccc(S(=O)(=O)Nc2cc(SCC(=O)O)c(OC)c3ccccc23)cc1`, the Ki at Bcl-2-related protein A1 [2] was more than 50 µM.
Same read-out and setting: under `COC(=O)CSc1cc(NS(=O)(=O)c2ccc(-c3ccccc3)cc2)c2ccccc2c1OC` stands more than 50 µM.
Still for that read-out and setting: under `COc1c(SCC(=O)O)cc(NS(=O)(=O)c2ccc(C)cc2)c2ccccc12` stands more than 50 µM.
`CC(C)=CCC[C@]1(C)C=Cc2c(O)c3c(c(CC=C(C)C)c2O1)O[C@]12C(=C[C@@H]4C[C@H]1C(C)(C)O[C@@]2(C/C=C(/C)C(=O)O)C4=O)C3=O` [GAMBOGIC ACID] displayed an IC50 on Bcl-2-related protein A1 [1] of 0.176 µM.

For the origin of these results see ChEMBL document CHEMBL5335817, “Discovery and optimization of (2-naphthylthio)acetic acid derivative as selective Bfl-1 inhibitor” (Bioorg Med Chem Lett, 2024).
